Source: ChEMBL document CHEMBL1138445, “Design and synthesis of potent inhibitors of cholesteryl ester transfer protein (CETP) exploiting a 1,2,3,4-tetrahydroquinoline platform” (Bioorg Med Chem Lett, 2009)
pIC50: −log10 of the molar value. Each block holds one compound with its values, some of them ahead of it.

Legend:
[1] = target: T1, Cholesteryl ester transfer protein (Homo sapiens) (UniProt P11597); experiment: Inhibition of human plasma derived CETP relative to control; design: concentration or dose not given beside the values; details: concentration not given here
T1 sequence (whole entry): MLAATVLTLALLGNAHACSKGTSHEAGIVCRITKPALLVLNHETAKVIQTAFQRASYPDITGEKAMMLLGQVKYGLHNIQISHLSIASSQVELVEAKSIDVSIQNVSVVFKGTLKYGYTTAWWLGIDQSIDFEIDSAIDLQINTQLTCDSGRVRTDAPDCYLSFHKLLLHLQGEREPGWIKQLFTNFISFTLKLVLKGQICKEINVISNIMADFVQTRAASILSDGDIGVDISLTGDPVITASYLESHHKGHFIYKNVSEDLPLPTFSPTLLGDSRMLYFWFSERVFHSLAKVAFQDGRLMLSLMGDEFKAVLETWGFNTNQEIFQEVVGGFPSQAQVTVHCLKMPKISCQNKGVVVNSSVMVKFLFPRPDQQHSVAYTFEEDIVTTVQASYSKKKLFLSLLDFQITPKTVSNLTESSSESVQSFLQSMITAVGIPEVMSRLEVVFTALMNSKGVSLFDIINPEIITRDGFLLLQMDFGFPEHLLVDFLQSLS

[2] = target: T2, Cholesteryl ester transfer protein (Homo sapiens, UniProt P11597); experiment: Inhibition of human plasma derived CETP; format: cell-free
T2 sequence (P11597 whole entry): T1 sequence (whole entry)

[3] = Volume of distribution at steady state in Sprague-Dawley rat at 2 mg/kg, iv; format: ADME, organism-based; design: dose 2 mg/kg, route intravenous; details: in vivo, read-out: Vdss
Cytochrome P450 3A4 = Cytochrome P450 3A4 (Homo sapiens, UniProt P08684); experiment: Inhibition of CYP3A4 from human liver microsomes; format: ADME
[4] = AUC in Sprague-Dawley rat at 2 mg/kg, iv; format: ADME, organism-based; design: dose 2 mg/kg, route intravenous; details: plasma
[5] = Cmax in Sprague-Dawley rat at 2 mg/kg, iv; format: ADME, organism-based; design: dose 2 mg/kg, route intravenous; details: in vivo
Cytochrome P450 1A2 = target: T3, Cytochrome P450 1A2 (Homo sapiens, UniProt P05177); experiment: Inhibition of CYP1A2 from human liver microsomes; format: ADME
T3 sequence (P05177 whole entry): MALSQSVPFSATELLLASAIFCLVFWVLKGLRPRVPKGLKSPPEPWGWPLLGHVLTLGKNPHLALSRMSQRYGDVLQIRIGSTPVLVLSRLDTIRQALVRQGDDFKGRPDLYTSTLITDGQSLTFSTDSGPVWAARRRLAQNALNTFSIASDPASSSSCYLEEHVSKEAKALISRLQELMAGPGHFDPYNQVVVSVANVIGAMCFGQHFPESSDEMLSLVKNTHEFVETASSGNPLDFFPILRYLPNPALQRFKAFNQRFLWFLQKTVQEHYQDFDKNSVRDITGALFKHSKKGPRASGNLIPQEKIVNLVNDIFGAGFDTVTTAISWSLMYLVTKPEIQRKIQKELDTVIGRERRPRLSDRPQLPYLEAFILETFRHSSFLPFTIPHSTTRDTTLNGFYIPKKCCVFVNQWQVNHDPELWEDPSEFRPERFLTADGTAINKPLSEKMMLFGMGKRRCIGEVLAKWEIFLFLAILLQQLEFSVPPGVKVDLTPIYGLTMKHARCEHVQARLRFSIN

[6] = Half life in Sprague-Dawley rat at 10 mg/kg, po; format: ADME, organism-based; design: dose 10 mg/kg, route oral; details: in vivo
[7] = Metabolic stability in human liver microsomes assessed as half life; format: ADME, Microsome
[8] = Oral bioavailability in Sprague-Dawley rat at 10 mg/kg; format: ADME, organism-based; details: in vivo
[9] = Tmax in Sprague-Dawley rat at 10 mg/kg, po; format: ADME, organism-based; design: dose 10 mg/kg, route oral; details: in vivo
Cytochrome P450 2E1 = Cytochrome P450 2E1 (Homo sapiens, UniProt P05181); experiment: Inhibition of CYP2E1 from human liver microsomes; format: ADME
[10] = Half life in Sprague-Dawley rat at 2 mg/kg, iv; format: ADME, organism-based; design: dose 2 mg/kg, route intravenous; details: in vivo
Cytochrome P450 2C9 = Cytochrome P450 2C9 (Homo sapiens, UniProt P11712); experiment: Inhibition of CYP2C9 from human liver microsomes; format: ADME
[11] = Cmax in Sprague-Dawley rat at 10 mg/kg, po; format: ADME, organism-based; design: dose 10 mg/kg, route oral; details: in vivo
[12] = Plasma clearance in Sprague-Dawley rat at 2 mg/kg, iv; format: ADME, organism-based; design: dose 2 mg/kg, route intravenous
Cytochrome P450 2D6 = Cytochrome P450 2D6 (Homo sapiens, UniProt P10635); experiment: Inhibition of CYP2D6 from human liver microsomes; format: ADME
Cytochrome P450 2C19 = Cytochrome P450 2C19 (Homo sapiens, UniProt P33261); experiment: Inhibition of CYP2C19 from human liver microsomes; format: ADME
[13] = AUC in Sprague-Dawley rat at 10 mg/kg, po; format: ADME, organism-based; design: dose 10 mg/kg, route oral; details: plasma
[14] = Permeability across human Caco-2 cell; format: ADME, cell-based; details: read-out: permeability
Cytochrome P450 2A6 = target: T4, Cytochrome P450 2A6 (Homo sapiens, UniProt P11509); experiment: Inhibition of CYP2A6 from human liver microsomes; format: ADME
T4 sequence (P11509 whole entry): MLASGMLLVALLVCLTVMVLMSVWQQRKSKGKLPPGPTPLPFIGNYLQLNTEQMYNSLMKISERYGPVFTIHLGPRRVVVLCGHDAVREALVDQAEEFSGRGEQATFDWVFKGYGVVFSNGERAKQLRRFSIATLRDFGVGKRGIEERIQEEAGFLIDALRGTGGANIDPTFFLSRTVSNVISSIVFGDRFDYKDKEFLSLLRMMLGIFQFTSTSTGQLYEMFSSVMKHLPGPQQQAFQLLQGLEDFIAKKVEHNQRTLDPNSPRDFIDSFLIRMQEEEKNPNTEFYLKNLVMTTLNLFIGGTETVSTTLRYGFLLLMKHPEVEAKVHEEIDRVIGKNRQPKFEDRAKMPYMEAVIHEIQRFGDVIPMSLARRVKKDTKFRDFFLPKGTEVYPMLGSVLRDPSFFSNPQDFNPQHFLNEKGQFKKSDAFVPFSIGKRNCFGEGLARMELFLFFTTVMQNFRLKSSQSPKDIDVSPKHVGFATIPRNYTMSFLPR

Chain of Cytochrome P450 2D6 (P10635 whole entry): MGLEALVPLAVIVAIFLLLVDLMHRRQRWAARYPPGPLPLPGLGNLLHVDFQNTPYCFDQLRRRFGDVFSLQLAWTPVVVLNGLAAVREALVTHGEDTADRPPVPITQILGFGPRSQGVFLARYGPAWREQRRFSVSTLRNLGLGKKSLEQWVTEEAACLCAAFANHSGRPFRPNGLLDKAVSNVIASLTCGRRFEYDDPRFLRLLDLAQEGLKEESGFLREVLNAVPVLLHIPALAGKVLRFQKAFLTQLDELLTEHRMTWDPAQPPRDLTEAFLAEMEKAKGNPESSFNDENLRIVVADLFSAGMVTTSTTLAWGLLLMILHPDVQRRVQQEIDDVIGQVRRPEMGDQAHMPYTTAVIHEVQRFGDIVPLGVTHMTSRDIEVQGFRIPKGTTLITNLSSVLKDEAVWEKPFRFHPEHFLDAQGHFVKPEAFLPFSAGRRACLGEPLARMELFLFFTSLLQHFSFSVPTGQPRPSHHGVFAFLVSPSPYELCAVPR
Chain of Cytochrome P450 2E1 (P05181 whole entry): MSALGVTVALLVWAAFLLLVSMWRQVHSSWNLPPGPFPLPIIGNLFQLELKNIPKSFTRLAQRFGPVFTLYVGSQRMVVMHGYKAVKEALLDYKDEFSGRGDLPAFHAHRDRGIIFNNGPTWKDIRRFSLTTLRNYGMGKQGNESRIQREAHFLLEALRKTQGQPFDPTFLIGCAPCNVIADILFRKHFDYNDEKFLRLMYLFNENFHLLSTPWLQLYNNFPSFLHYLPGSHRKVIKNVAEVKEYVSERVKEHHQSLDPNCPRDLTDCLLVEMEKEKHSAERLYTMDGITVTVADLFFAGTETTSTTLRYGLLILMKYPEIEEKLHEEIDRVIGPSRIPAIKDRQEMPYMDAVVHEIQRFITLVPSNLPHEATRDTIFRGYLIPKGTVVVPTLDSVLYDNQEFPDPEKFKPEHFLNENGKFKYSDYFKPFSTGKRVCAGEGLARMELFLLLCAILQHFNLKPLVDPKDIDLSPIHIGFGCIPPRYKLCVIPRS
Chain of Cytochrome P450 2C9 (P11712 whole entry): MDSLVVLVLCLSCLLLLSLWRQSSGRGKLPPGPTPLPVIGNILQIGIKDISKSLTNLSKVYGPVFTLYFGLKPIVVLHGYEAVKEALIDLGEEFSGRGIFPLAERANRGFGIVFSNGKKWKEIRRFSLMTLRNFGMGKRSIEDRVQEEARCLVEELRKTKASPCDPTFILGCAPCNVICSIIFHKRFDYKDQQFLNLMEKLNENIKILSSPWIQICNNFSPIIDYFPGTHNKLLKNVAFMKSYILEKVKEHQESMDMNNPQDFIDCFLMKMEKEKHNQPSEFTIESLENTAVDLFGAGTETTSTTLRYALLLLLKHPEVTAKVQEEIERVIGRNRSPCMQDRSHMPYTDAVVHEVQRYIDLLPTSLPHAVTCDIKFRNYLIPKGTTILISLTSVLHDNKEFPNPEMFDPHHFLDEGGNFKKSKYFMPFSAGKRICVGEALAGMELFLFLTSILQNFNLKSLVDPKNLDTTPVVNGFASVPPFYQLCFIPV
Chain of Cytochrome P450 2C19 (P33261 whole entry): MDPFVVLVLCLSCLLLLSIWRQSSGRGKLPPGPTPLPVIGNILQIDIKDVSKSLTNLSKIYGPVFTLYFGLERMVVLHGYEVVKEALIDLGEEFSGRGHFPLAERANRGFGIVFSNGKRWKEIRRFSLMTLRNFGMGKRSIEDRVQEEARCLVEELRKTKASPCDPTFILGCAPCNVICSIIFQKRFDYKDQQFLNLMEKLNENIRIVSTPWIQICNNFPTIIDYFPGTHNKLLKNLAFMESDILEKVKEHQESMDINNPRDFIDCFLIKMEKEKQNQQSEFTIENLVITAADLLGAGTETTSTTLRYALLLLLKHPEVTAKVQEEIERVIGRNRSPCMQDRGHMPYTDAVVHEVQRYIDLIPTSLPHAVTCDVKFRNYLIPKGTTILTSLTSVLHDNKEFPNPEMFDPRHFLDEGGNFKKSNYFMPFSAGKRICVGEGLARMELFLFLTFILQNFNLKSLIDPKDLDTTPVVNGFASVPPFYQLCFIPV
Chain of Cytochrome P450 3A4 (P08684 whole entry): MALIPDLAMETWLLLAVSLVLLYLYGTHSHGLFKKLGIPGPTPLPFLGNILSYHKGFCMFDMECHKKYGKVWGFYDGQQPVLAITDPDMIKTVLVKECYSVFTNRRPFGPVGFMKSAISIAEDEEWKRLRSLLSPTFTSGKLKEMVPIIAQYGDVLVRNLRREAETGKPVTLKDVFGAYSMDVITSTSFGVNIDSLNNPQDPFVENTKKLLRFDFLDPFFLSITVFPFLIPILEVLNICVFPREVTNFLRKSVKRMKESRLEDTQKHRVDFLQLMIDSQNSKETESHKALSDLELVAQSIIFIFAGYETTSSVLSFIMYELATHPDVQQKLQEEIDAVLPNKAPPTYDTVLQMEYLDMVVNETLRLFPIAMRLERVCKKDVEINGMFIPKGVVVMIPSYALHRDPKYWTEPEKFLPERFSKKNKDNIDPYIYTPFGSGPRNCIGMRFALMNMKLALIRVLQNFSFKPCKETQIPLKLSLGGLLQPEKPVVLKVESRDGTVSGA

Compound: CC(C)Oc1cccc(-c2cccc3c2CCC(c2cccc(OC(F)(F)C(F)F)c2)N3CC(O)C(F)(F)F)c1 (stereo not given)
inhibition [1]: 55%
pIC50 [2]: 6.46

Compound: OC(CN1c2cccc(-c3ccc(OC(F)(F)F)cc3)c2CCC1c1cccc(OC(F)(F)C(F)F)c1)C(F)(F)F (single isomer, unassigned; diastereomer 1)
inhibition [1]: 85%
pIC50 [2]: 6.30

Compound: OC(CN1c2cccc(-c3cccnc3)c2CCC1c1cccc(OC(F)(F)C(F)F)c1)C(F)(F)F (single isomer, unassigned; diastereomer 1)
inhibition [1]: 47%
pIC50 [2]: < 5.52

Compound: O[C@H](CN1c2cccc(-c3cccc(OC(F)(F)F)c3)c2CC[C@@H]1c1cccc(OC(F)(F)F)c1)C(F)(F)F [TETRAHYDROQUINOLINE B]
inhibition [1]: 62%
pIC50 [2]: < 5.52

Now those with a higher pIC50 [2], led by results:

inhibition [1]: 68%
pIC50 [2]: 6.90
Compound: C[C@@H](O)CN1c2cccc(-c3cccc(OC(F)(F)F)c3)c2CC[C@@H]1c1cccc(OC(F)(F)F)c1

inhibition [1]: 63%
pIC50 [2]: 6.50
Compound: OC(CN1c2cccc(-c3cccs3)c2CCC1c1cccc(OC(F)(F)C(F)F)c1)C(F)(F)F (single isomer, unassigned; diastereomer 1)

inhibition [1]: 63%
pIC50 [2]: 6.56
Compound: CC(C)c1cccc(-c2cccc3c2CCC(c2cccc(OC(F)(F)C(F)F)c2)N3CC(O)C(F)(F)F)c1 (single isomer, unassigned; diastereomer 1)

Vd [3]: 0.36 L/kg
Activity (Cytochrome P450 3A4): Not Active
AUC [4]: 18900 ng·h/mL
Cmax [5]: 31400 ng/mL
Activity (Cytochrome P450 1A2): Not Active
half-life [6]: 28 h
inhibition [1]: 85%
half-life [7]: > 2.13 h
bioavailability [8]: 31%
Tmax [9]: 6 h
Activity (Cytochrome P450 2E1): Not Active
half-life [10]: 17.4 h
Activity (Cytochrome P450 2C9): Not Active
Cmax [11]: 950 ng/mL
clearance [12]: 1.8 mL/min/kg
Activity (Cytochrome P450 2D6): Not Active
Activity (Cytochrome P450 2C19): Not Active
pIC50 [2]: 7.41
AUC [13]: 31300 ng·h/mL
Papp [14]: 4.7 ×10⁻⁶ cm/s
Activity (Cytochrome P450 2A6): Not Active
Compound: O[C@@H](CN1c2cccc(-c3cccc(OC(F)(F)F)c3)c2CC[C@@H]1c1cccc(OC(F)(F)F)c1)C(F)(F)F [TETRAHYDROQUINOLINE A]
